Data: article PMC8019741, “Efficacy Prediction of Four Pharmaceutical Formulations for Intramammary Administration Containing Aloe vera (L.) Burm. f. Combined With Ceftiofur or Cloxacillin in Lactating Cows as an Alternative Therapy to Treat Mastitis Caused by Staphylococcus aureus” (Frontiers in Veterinary Science, 2021)

Test system: Staphylococcus aureus ATCC 29213
Experiment: Macrodilution MIC test (CLSI)
Assay type: cell-based
Details: for MIC of the antimicrobial not combined: alone
Procedure: A macrodilution test was performed to determine the MIC for the different combinations, following the recommendations from the CLSI ([47]).
Aloe vera gel extract (1,200 mg/ml) was diluted in Muller-Hinton II (Cation Adjusted) Broth (MHBCA) from BD® (Franklin Lakes, NJ, USA) up to a range of concentrations from 150 to 1,200 mg/ml. In addition, the standard solutions of cloxacillin and ceftiofur were diluted in MHBCA to prepare 2-fold serial dilutions at a concentrations range of 0.015–128 μg/ml.
Staphylococcus aureus ATCC 29213 (KWIK-STIK) was sourced from Microbiologics® (St. Cloud, MN, USA) and used to test the MIC for the different combinations of Aloe vera and cloxacillin or ceftiofur. First, S. aureus was rehydrated with Trypticase™ Soy Broth from BD® (Franklin Lakes, NJ, USA). Then, these bacteria were cultured in the Trypticase™ Soy Broth from BD® (Franklin Lakes, NJ, USA) with 5% sheep defibrinated blood (Franklin Lakes, NJ, USA) at an incubation temperature of 36 ± 1°C for 24 h. Once incubation ended, bacteria were preserved at −80°C using cryobank vials, while waiting for further processing. […] These cultured bacteria were then suspended in MHBCA from BD® (Franklin Lakes, NJ, USA), and the optical density was adjusted according to the McFarland Standard Solution to standardize the number of bacteria. From this broth, dilutions containing 5 × 10^5 UFC/ml were incubated along with dilutions of a combination of Aloe vera extract and antimicrobials. […] Additionally, S. aureus bacteria were incubated separately, in different tubes, with the extract, cloxacillin, and ceftiofur dilutions.

Row | SMILES | MIC of the antimicrobial not combined [µg/mL] | MIC (Staphylococcus aureus, ATCC29213, calculated from the MIC of Aloe vera in the combination and the concentration of aloin A + aloin B in the extract) [µg/mL]
1 | CO/N=C(\C(=O)N[C@@H]1C(=O)N2C(C(=O)O)=C(CSC(=O)c3ccco3)CS[C@H]12)c1csc(N)n1 [ceftiofur] | 0.25 | –
2 | O=C1c2c(O)cccc2C([C@@H]2O[C@H](CO)[C@@H](O)[C@H](O)[C@H]2O)c2cc(CO)cc(O)c21 (stereo partly drawn) [aloin] | – | 0.00366
3 | Cc1onc(-c2ccccc2Cl)c1C(=O)N[C@@H]1C(=O)N2[C@@H]1SC(C)(C)[C@@H]2C(=O)O [cloxacillin] | 0.25 | –
